{
  "source": "patent US20230234996A1",
  "about": "“PI3K GAMMA INHIBITOR PEPTIDE FOR TREATMENT OF FIBROPROLIFERATIVE VASCULAR DISEASES” (Kither Biotech S.r.l., priority 2020, published 2023)",
  "key": {"[1]": {"system": "intracellular cAMP in primary VSMC", "assay": "cAMP dynamics with FRET-based TEpacVV biosensor", "assay_type": "cell-based, mouse", "conditions": "for cAMP level regulated by PDE3 (cilostamide response): cilostamide 1 μM; for cAMP level regulated by PDE4 (rolipram response): rolipram 1 μM; for cAMP production in response to forskolin: Rmax = forskolin 2.5 μM + IBMX 200 μM", "experimental": "A. Left panel: Average changes in intracellular cAMP concentration ([cAMP]i) in primary VSMC from WT (top), PI3Kγ KO (middle) and PI3Kγ-KD (bottom) mice and expressing the ^TEpac^VV biosensor. The black line represents the average F480/F535 emission ratio over time in response to 2.5 μM forskolin (fsk) stimulation and fsk (2.5 μM)+IBMX (200 μM) treatment. B. Histograms representing the mean values for forskolin responses. Results are expressed as a percentage of the maximal ratio change (% of Rmax(IBMX response)) determined by the final application of forskolin (2.5 μM)+IBMX (200 μM). Data shown are the means±SEM. (n=5 mice). Data are presented as mean±SEM and were compared using a Kruskal-Wallis test. C. Homogenous time-resolved fluorescence (HTRF) dosage of intracellular cAMP from WT, PI3Kγ KO or PI3Kγ KD primary VSMC after 30 min treatment with vehicle or 0.5 μM Forskolin.\nA. Average changes in [cAMP]i in primary VSMC from WT (top), PI3Kγ KO (middle) and PI3Kγ-KD (bottom) mice and expressing the ^TEpac^VV biosensor. The trace indicates the average F480/F535 emission ratio over time in response to 2.5 μM forskolin, cilostamide (1 μM), rolipram (1 μM) and forskolin (2.5 μM)+IBMX (200 μM) treatment. B. Histograms representing the mean values for rolipram and cilostamide responses. Results are expressed as a percentage of the maximal ratio change (% of Rmax (IBMX response)) determined by the final application of forskolin (2.5 μM)+IBMX (200 μM). Data are presented as mean±SEM (n>22 with 4 different mice) and were compared using a Kruskal-Wallis test. C. Phosphodiesterase activity detected in PDE4D immunoprecipitates from primary VSMC. Data shown are the means±SEM and compared using one-way ANOVA followed by Bonferroni post-hoc test (n=3). D. Representative Western blot of PDE4D immunoprecipitates.\nMeasurement of cAMP dynamics: Primary SMC were seeded on coverslips and infected with the ^TEpac^VV-encoding type-5 adenovirus (˜100 particles per SMC) as described elsewhere. Coverslips were placed in a microscope chamber continually perfused (2 mL·min^−1) with BBS buffer (125 mM NaCl, 2 mM CaCl2), 1 mM MgCl2, 1.25 mM NaH2PO4, 26 mM NaHCO3, 25 mM glucose) saturated with 95% 02-5% CO2. Ratiometric analyses were performed as follows: fluorescence was excited with a LED source at 435 nm and fluorescence emission was monitored with a dichroic mirror (T450LPXR) and alternating emission filters for the donor (HQ480/40) and acceptor (D535/40). Pairs of images were recorded with an Orca-ER CCD camera (Hamamatsu Photonics, Japan), at 20-s intervals. Changes in [cAMP]i are expressed as the ratio of donor fluorescence (F480) to acceptor fluorescence (F535). The ratios were multiplied by a same constant for all experiments, such that the baseline ratio was 1 in basal conditions. The maximum ratio change (Rmax) was obtained by stimulating cells with 2.5 μM forskolin and […] IBMX (15879, Sigma Aldrich). Filters and mirrors were obtained from AHF analysentechnik AG, Tübingen, Germany."}, "[2]": {"system": "PDE4D", "assay": "PDE4D function in VSMC", "assay_type": "cell-based", "conditions": "summary statement"}, "[3]": {"system": "primary VSMC", "assay": "Mouse SMC proliferation by BrdU incorporation", "assay_type": "cell-based", "conditions": "for cell proliferation (BrdU incorporation): 25 μM peptide 24 h, PDGF 25 ng/ml with or without forskolin 25 μM, vs control peptide", "experimental": "A. Representatives cross sections of injured femoral arteries stained with Masson Trichrome from the indicated hematopoietic chimeras. Scale bars=100 μM. Irradiated WT, PI3Kγ KD (KD) and PI3Kγ KO recipient mice were transplanted with bone marrow from the indicated donors to obtain the indicated chimeras. Irradiated WT mice were transplanted with bone marrow from WT, PI3Kγ KD or PI3Kγ KO to obtain the following hematopoietic chimeras: WT>WT, KD>WT and KO>WT. Irradiated KD recipient mice were transplanted with bone marrow from WT or PI3Kγ KD donor mice (WT>KD; KD>KD). Irradiated KO recipient mice were transplanted with bone marrow from WT or KO donors (WT>KO and KO>KO). B. Quantitative analysis of intima/media ratios of indicated hematopoietic chimeras. Histogram represents the neointima/media ratio for each chimera (n>6 mice for each group). Data are presented as mean±SEM and were compared using a one-way ANOVA test. C. Schematic representation of the experimental model used to investigate PI3Kγ implication in the control of SMC proliferation. D. Western blot of PI3Kγ expression in each genotype. […] (5<n<12 cultures for each genotype). Data are presented as mean±SEM and were compared using a one-way ANOVA test.\nA, B, C. […] BrdU was added during the last 18 h (n=8 cultures for each genotype). Data are presented as mean±SEM and were compared using a one-way ANOVA test. D. Schematic model of PI3Kγ implication in VSMC proliferation. VSMC proliferation is induced by PDGF stimulation. […] This PI3Kγ recruitment could also concentrate phosphodiesterases (PDE) that counterbalance cAMP production by adenylate cyclase (AC) induced by other signals. By these mechanisms, PI3Kγ acts as an amplifier of VSMC synthetic transition.\nMeasure of mouse SMC proliferation: Primary mouse SMCs were sub-cultured onto 48-well cell culture plates in complete medium. Cells were treated or not with PDGF (520-BB-050, R&D Systems) and forskolin (F3917, Sigma Aldrich) for 24 h. For blocking peptide experiments, cells were incubated 24 h with 25 μM of control ([…]—SEQ ID No.: 13) or blocking peptide ([…]—SEQ ID No.: 14). Peptides were synthesized by GenScript (GenScript, Piscataway, N.J.). BrdU (00-0103, Invitrogen) incorporation assays were performed by classical immunofluorescence procedure using anti-BrdU antibody (11-5071, eBioscience) and DAPI. Proliferation rate is measured as the ratio of BrdU positive nuclei over total nuclei and expressed as fold increase."}, "[4]": {"system": "C5a-mediated Akt phosphorylation (Ser-473), relying on the catalytic activity of PI3Kγ, RAW264 macrophages", "assay": "C5a-mediated Akt phosphorylation in macrophages (Western blot)", "assay_type": "cell-based", "conditions": "then C5a 5 min", "experimental": "A. Schematic representation of the cell-permeable PI3Kγ competing peptide. The 126-150 region of PI3Kγ was fused to the cell-penetrating peptide Penetratin 1 (P1). A control peptide was generated by insertion of two point mutations (K>A and R>A at position 1 and 5 of the PI3Kγ sequence, respectively). B. RAW macrophages were pre-treated with vehicle, the PI3Kγ peptide (10 μM) or the PI3Kγ kinase inhibitor AS605240 (1 μM) for 1 hour and then with C5a (50 μM) for 5 minutes. Representative Western blot images of phospho-AKT (Ser-473) and total AKT (left) and ratio quantification (right) are shown. GAPDH was used as loading control. n=3. C. Incorporation by primary VSMC of a FITC-labelled PI3Kγ peptide at 1 h, 5 h, 24 h and 30 h after incubation. D. Quantification of FITC-associated fluorescence intensity inside VSMC area. C5a-mediated Akt phosphorylation in macrophages: After 3 h starvation in serum-free medium, RAW264 macrophages were pre-treated with the PI3Kγ competing peptide (25 μM) or the PI3Kγ inhibitor AS-605240 (1 μM; MedChemExpress) or DMSO for 30 min and stimulated for 5 min with 50 nM of C5a (Sigma Aldrich). Akt phosphorylation at Ser-473 was detected by Western blot using a Ser473 Akt-specific antibody (Cell Signaling Technology)."}, "[5]": {"system": "PKA", "conditions": "reference [19]; cited from earlier work"}, "[6]": {"conditions": "forskolin-stimulated PI3Kγ-KD VSMC"}, "[7]": {"conditions": "forskolin-stimulated PI3Kγ-KO VSMC"}},
  "note": "“Also recorded” adds a separate entry of the source.",
  "data": [
    {"compound": "CN(C(=O)CCCOc1ccc2[nH]c(=O)ccc2c1)C1CCCCC1", "note": "[cilostamide]", "values": [
      {"measurement": "cAMP level regulated by PDE3 (cilostamide response)", "setting": "[1]; [6]", "result": "17 % of IBMX response"},
      {"measurement": "cAMP level regulated by PDE3 (cilostamide response)", "setting": "[1]; [7]", "result": "49 % of IBMX response"},
      {"measurement": "cAMP level regulated by PDE3 (cilostamide response)", "setting": "[1]; forskolin-stimulated WT VSMC", "result": "25 % of IBMX response"}
    ]},
    {"compound": "COc1ccc(C2CNC(=O)C2)cc1OC1CCCC1", "note": "(stereo not drawn) [rolipram]", "values": [
      {"measurement": "cAMP level regulated by PDE4 (rolipram response)", "setting": "[1]; [6]", "result": "73 % of IBMX response"},
      {"measurement": "cAMP level regulated by PDE4 (rolipram response)", "setting": "[1]; [7]", "result": "43 % of IBMX response"},
      {"measurement": "cAMP level regulated by PDE4 (rolipram response)", "setting": "[1]; forskolin-stimulated WT VSMC", "result": "67 % of IBMX response"}
    ]},
    {"compound": "RQIKIWFQNRRMKWKKGKATHRSPGQIHLVQRHPPSEESQAF (KIT2014) [PI3Kγ peptide, The 126-150 region of PI3Kγ fused to the cell-penetrating peptide Penetratin 1 (P1)]", "values": [
      {"measurement": "PDE4D function", "setting": "[2]", "result": "specifically blunted PDE4D function"},
      {"measurement": "cAMP levels in VSMC", "setting": "[1]; peptide conjugated with Penetratin 1, summary statement", "result": "increases their cAMP levels"},
      {"measurement": "cell proliferation (BrdU incorporation)", "setting": "[3]; PI3Kγ-KD primary VSMC", "result": "inhibited cell proliferation"},
      {"measurement": "cell proliferation (BrdU incorporation)", "setting": "[3]; PI3Kγ-KO primary VSMC", "result": "no difference was observed"},
      {"measurement": "VSMC proliferation", "setting": "[3]; VSMC in vitro, response to PDGF and forskolin, genotype not stated (summary statement)", "result": "abolished VSMC proliferation; also recorded: inhibits VSMC proliferation"},
      {"measurement": "cell proliferation (BrdU incorporation)", "setting": "[3]; WT primary VSMC", "result": "inhibited cell proliferation"},
      {"measurement": "C5a-mediated Akt phosphorylation in macrophages", "setting": "[4]; RAW macrophages pre-treated with PI3Kγ peptide (25 μM b74; 10 μM b24)", "result": "unaltered"}
    ]},
    {"compound": "RQIKIWFQNRRMKWKKGAATHASPGQIHLVQRHPPSEESQAF (control peptide)", "values": [
      {"measurement": "interaction with PKA", "setting": "[5]", "result": "does not interact with PKA"}
    ]},
    {"compound": "C=C[C@@]1(C)CC(=O)[C@]2(O)[C@@]3(C)[C@@H](O)CCC(C)(C)[C@@H]3[C@H](O)[C@H](OC(C)=O)[C@@]2(C)O1", "note": "[forskolin]", "values": [
      {"measurement": "cAMP production in response to forskolin", "setting": "[1]; 2.5 μM forskolin, PI3Kγ-KO primary VSMC", "result": "52.57 % of IBMX response"},
      {"measurement": "cAMP production in response to forskolin", "setting": "[1]; 2.5 μM forskolin, WT primary VSMC", "result": "24.09 % of IBMX response"},
      {"measurement": "increase of forskolin cAMP response, PI3Kγ-KO compared to WT", "setting": "[1]; 2.5 μM forskolin, p=0.03", "result": 2.2, "unit": "folds"}
    ]},
    {"compound": "O=C1NC(=O)/C(=C\\c2ccc3nccnc3c2)S1", "note": "[AS-6052540]", "values": [
      {"measurement": "C5a-mediated Akt phosphorylation in macrophages", "setting": "[4]; RAW macrophages pre-treated with inhibitor 1 μM", "result": "significantly reduced"}
    ]}
  ]
}
